From patent US20210347780A1, “CDPK1 INHIBITORS, COMPOSITIONS, AND METHODS RELATED THERETO” (Vyera Pharmaceuticals, LLC, priority 2018, published 2021)

molecular target: T1, T. gondii CDPK1 (tgCDPK1) (Toxoplasma gondii, UniProt Q9BJF5); experiment: biochemical; details: inhibition of T. gondii CDPK1; at least three independent replicates; read-out: tgCDPK1 IC50
T1 sequence (Q9BJF5 1-507): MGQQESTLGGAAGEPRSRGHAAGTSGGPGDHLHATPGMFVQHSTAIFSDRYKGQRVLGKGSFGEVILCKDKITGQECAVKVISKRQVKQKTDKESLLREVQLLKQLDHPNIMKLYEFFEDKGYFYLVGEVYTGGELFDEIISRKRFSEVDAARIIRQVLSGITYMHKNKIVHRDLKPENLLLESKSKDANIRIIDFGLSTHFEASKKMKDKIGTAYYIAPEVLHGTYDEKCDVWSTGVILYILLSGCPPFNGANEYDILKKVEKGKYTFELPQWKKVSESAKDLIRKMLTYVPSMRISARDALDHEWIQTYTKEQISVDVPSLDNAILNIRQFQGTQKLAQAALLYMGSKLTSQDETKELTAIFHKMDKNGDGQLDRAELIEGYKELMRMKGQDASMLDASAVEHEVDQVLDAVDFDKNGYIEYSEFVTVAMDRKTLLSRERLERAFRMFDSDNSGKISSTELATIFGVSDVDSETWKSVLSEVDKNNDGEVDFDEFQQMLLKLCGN
Procedure: Certain of the compounds prepared as described above were assayed to determine their IC50 for inhibition of T. gondii CDPK1 (tgCDPK1). At least three independent replicates of the assay were conducted for each compound tested.

Molecule | IC50 [nM]
Nc1ncnc2c1c(Oc1cc(Cl)ccn1)nn2[C@H]1C[C@@H](O)C1 [Compound 163] | 18
Nc1ncnc2c1c(Oc1cc(C(F)(F)F)ccn1)nn2CC1CC(B(O)O)C1 (stereo not drawn) [Compound 270] | 28.7
Nc1ncnc2c1c(Oc1cc(C(F)(F)F)ccn1)nn2C1CCC(O)C1 (stereo not drawn) [Compound 230] | 24.2
Nc1ncnc2c1c(Oc1cc(C(F)(F)F)ccn1)nn2C1CC(F)(F)CCC1O (stereo not drawn) [Compound 274] | 35
Nc1ncnc2c1c(Oc1cc(C(F)(F)F)ccn1)nn2CC1CCB(O)O1 (stereo not drawn) [Compound 269] | 28.6
CC(C)(C)n1nc(Oc2cc(O)ccn2)c2c(N)ncnc21 [Compound 264] | 13.9
COc1ccnc(Oc2nn([C@H]3CCCC[C@H]3O)c3ncnc(N)c23)c1 [Compound 282] | 41.3
Nc1ncnc2c1c(Oc1cc(C(F)(F)F)ccn1)nn2[C@H]1CCCC[C@@H]1O [191 (S,S)] | 125
Nc1ncnc2c1c(Oc1cc(C(F)(F)F)ccn1)nn2C1(C(=O)O)CCC1 [Compound 288] | 11900
Nc1ncnc2c1c(Cc1cccc(F)c1)nn2[C@H]1C[C@H](O)C1 [Compound 128] | 28.3
NC(=O)c1ccnc(Oc2nn(C3CCC(F)(F)CC3)c3ncnc(N)c23)c1 [Compound 206] | 96.8
CC(C)(C)n1nc(Oc2cc(C(F)(F)F)ccn2)c2c(N)ncnc21 [Compound 258] | 13.9
CN(C)C1CCC(n2nc(Oc3cc(C(F)(F)F)ccn3)c3c(N)ncnc32)CC1 (stereo not drawn) [Compound 227] | 28.5
COc1ccnc(Oc2nn([C@H]3C[C@H](F)C3)c3ncnc(N)c23)c1 [Compound 175] | 17.4
Nc1ncnc2c1c(Oc1cc(C(F)(F)F)ccn1)nn2C1CCNCC1 [Compound 194] | 67.8
Nc1ncnc2c1c(Oc1cc(Cl)ccn1)nn2C1CCCNC1 (stereo not drawn) [Compound 189] | ~24
Nc1ncnc2c1c(Oc1cccc(Cl)c1)nn2Cc1cc[nH]c1 [Compound 247] | 19.4
Nc1ncnc2c1c(Oc1cc(O)ccn1)nn2[C@H]1CCCC[C@@H]1O [Compound 278] | 18.9
COc1ccnc(Oc2nn([C@H]3C[C@H](F)C3)c3ncnc(N)c23)c1 [Compound 162] | 17.4
Nc1ncnc2c1c(Oc1cc(C(F)(F)F)ccn1)nn2CC1CC(O)C1 (stereo not drawn) [Compound 273] | 35.8
NC(=O)c1ccnc(Oc2nn([C@H]3CC[C@@H](C(F)(F)F)CC3)c3ncnc(N)c23)c1 [Compound 208] | 90.1
Nc1ncnc2c1c(Oc1cc(C(F)(F)F)ccn1)nn2C1CNCC(F)(F)C1 (stereo not drawn) [Compound 190] | ~54
CC(C)(C)n1nc(Oc2cc(Cl)ccn2)c2c(N)ncnc21 [Compound 262] | 12
Nc1ncnc2c1c(Oc1cc(C(F)(F)F)ccn1)nn2C1CCOC1 (stereo not drawn) [Compound 193] | 47.7

Molecule | IC50 [nM]
N#Cc1ccnc(Oc2nn([C@H]3CC[C@H](C(F)(F)F)CC3)c3ncnc(N)c23)c1 [Compound 209] | 26
Nc1ncnc2c1c(Oc1cc(Cl)ccn1)nn2C1CCCNC1 (stereo not drawn) [Compound 222] | 24.6
Nc1ncnc2c1c(Cc1cccc(Cl)c1)nn2[C@H]1C[C@@H](F)C1 [Compound 135, 3-(3-chlorobenzyl)-1-((cis)-3-fluorocyclobutyl)-1H-pyrazolo[3,4-d]pyrimidin-4-amine] | 7.05
CC(=O)Oc1ccnc(Oc2nn(C3CCC(F)(F)CC3)c3ncnc(N)c23)c1 [Compound 277] | 21.5
COc1ccnc(Oc2nn([C@@H]3CCCC[C@H]3O)c3ncnc(N)c23)c1 [Compound 281] | 26.2
CC(C)(C)n1nc(Oc2cc(C#N)ccn2)c2c(N)ncnc21 [Compound 259] | 18.1
COC(=O)C1CCC(n2nc(Oc3cc(C(F)(F)F)ccn3)c3c(N)ncnc32)CC1 (stereo not drawn) [Compound 228] | 25.4
(trans)-3-(4-amino-3-((5-fluoro-1H-indol-3-yl)methyl)-1H-pyrazolo[3,4-d]pyrimidin-1-yl)cyclobutan-1-ol [Compound 154] | 11.8
COc1ccnc(Oc2nn(C3CCC3)c3ncnc(N)c23)c1 [Compound 112, 1-cyclobuty1-3-((4-methoxypyridin-2-yl)oxy)-1H-pyrazolo[3,4-d]pyrimidin-4-amine] | 14.6
N#Cc1ccnc(Oc2nn([C@H]3CC[C@@H](C(F)(F)F)CC3)c3ncnc(N)c23)c1 [Compound 207] | 23.7
Nc1ncnc2c1c(Oc1cc(C(F)(F)F)ccn1)nn2[C@H]1C[C@@H](O)C1 [Compound 170] | 38.6
Nc1ncnc2c1c(Oc1cc(O)ccn1)nn2C1CCC(F)(F)CC1 [Compound 187, 2-((4-amino-1-(4,4-difluorocyclohexyl)-1H-pyrazolo[3,4-d]pyrimidin-3-yl)oxy)pyridin-4-ol] | 10
C=CC(O)Cn1nc(Oc2cc(C(F)(F)F)ccn2)c2c(N)ncnc21 (stereo not drawn) [Compound 268] | 11.7
Nc1ncnc2c1c(Oc1cc(O)ccn1)nn2C1CC(F)C1 (stereo not drawn) [Compound 290] | 8.7
Nc1ncnc2c1c(Oc1cccc(Cl)c1)nn2CC1(CO)CC1 [Compound 250] | 34.9
Nc1ncnc2c1c(Oc1cc(C(F)(F)F)ccn1)nn2CC1CCNCC1(F)F (stereo not drawn) [Compound 197] | 13.8
Nc1ncnc2c1c(Oc1cc(C(F)(F)F)ccn1)nn2C1CCNCC1(F)F (stereo not drawn) [Compound 271] | 19.8
Nc1ncnc2c1c(Oc1cc(C(F)(F)F)ccn1)nn2C1CCCCC1=O (stereo not drawn) [Compound 289] | 98.5
Nc1ncnc2c1c(Oc1cc(C(F)(F)F)ccn1)nn2[C@H]1COC[C@H](N)C1 [Compound 248] | 60.7
Nc1ncnc2c1c(Oc1cc(C(F)(F)F)ccn1)nn2[C@H]1CCCC[C@H]1O (racemic) [191 cis (rac)] | 44
Nc1ncnc2c1c(Cc1cccc(Br)c1)nn2[C@H]1C[C@@H](O)C1 [Compound 131] | 11.4
Nc1ncnc2c1c(Oc1cc(O)ccn1)nn2[C@@H]1CCCC[C@@H]1O (single isomer, unassigned) [Compound 284] | 39.2
Nc1ncnc2c1c(Oc1cc(C(F)(F)F)ccn1)nn2C1CC2CNC1C2 (stereo not drawn) [Compound 234] | 76.7
Nc1ncnc2c1c(Cc1c[nH]c3ccc(F)cc13)nn2[C@H]1C[C@H](O)C1 [Compound 184] | 10.2

Molecule | IC50 [nM]
Nc1ncnc2c1c(Oc1cccc(C(F)(F)F)c1)nn2[C@H]1C[C@H](O)C1 [Compound 179] | 47.9
Nc1ncnc2c1c(Oc1cc(C(F)(F)F)ccn1)nn2[C@@H]1CCCC[C@H]1O [191 (R,R)] | 8.4
Nc1ncnc2c1c(Oc1cc(Cl)ccn1)nn2C1CCCCC1 [Compound 214] | 4.6
NC(=O)c1ccnc(Oc2nn(C3CCCC3)c3ncnc(N)c23)c1 [Compound 204] | 67
N#Cc1cccc(Cc2nn([C@H]3C[C@H](F)C3)c3ncnc(N)c23)c1 [Compound 172] | 45.9
Nc1ncnc2c1c(Cc1cccc(Br)c1)nn2[C@H]1C[C@H](O)C1 [Compound 127] | 18.4
Nc1ncnc2c1c(Oc1cccc(Cl)c1)nn2C1CCC1 [Compound 121, 3-(3-chlorophenoxy)-1-cyclobutyl-1H-pyrazolo[3,4-d]pyrimidin-4-amine] | 7.41
Nc1ncnc2c1c(Oc1cc(C(F)(F)F)ccn1)nn2[C@@H]1CCCC[C@H]1O (racemic) [191 trans (rac)] | 25
COc1ccnc(Oc2nn(CC3CC3)c3ncnc(N)c23)c1 [Compound 223] | 25.1
N#Cc1ccnc(Oc2nn(C3CCCCC3)c3ncnc(N)c23)c1 [Compound 215] | 12.3
Nc1ncnc2c1c(Oc1cc(C(F)(F)F)ccn1)nn2C1CC1 [Compound 159] | 13
N#Cc1ccnc(Oc2nn(CC3CC3)c3ncnc(N)c23)c1 [Compound 221] | 24.1
Nc1ncnc2c1c(Oc1cc(C(F)(F)F)ccn1)nn2C1(C(F)(F)F)CCC1 [Compound 272] | 20.7
Nc1ncnc2c1c(Oc1cc(Cl)ccn1)nn2C1CCOC1 (stereo not drawn) [Compound 202] | 55.7
CC(C)(C)n1nc(Cc2cccc(C#N)c2)c2c(N)ncnc21 [Compound 255] | 13.4
CC(C)(C)OC(=O)N1CCC(n2nc(Oc3cc(C(F)(F)F)ccn3)c3c(N)ncnc32)C1 (stereo not drawn) [Compound 199] | 38.9
Nc1ncnc2c1c(Oc1cc(C(F)(F)F)ccn1)nn2CC1CC1 [Compound 186] | 22.4
CC(C)(CO)Cn1nc(Oc2cccc(Cl)c2)c2c(N)ncnc21 [Compound 265] | 47.9
Nc1ncnc2c1c(Oc1cc(CO)ccn1)nn2C1CC1 [Compound 86, (2-((4-amino-1-cyclopropyl-1H-pyrazole[3,4-d]pyrimidin-3-yl)oxy)pyridin-4-yl)methanol] | 29.6
NC(=O)c1ccnc(Oc2nn(C3CCCCC3)c3ncnc(N)c23)c1 [Compound 205] | 26.8
CC(C)(C)OC(=O)N[C@H]1CC[C@@H](n2nc(Oc3cc(C(F)(F)F)ccn3)c3c(N)ncnc32)C1 [Compound 240] | 12.1
Nc1ncnc2c1c(Oc1cc(C(F)(F)F)ccn1)nn2[C@H]1CC[C@@H](CO)CC1 [Compound 242] | 15.1
Nc1ncnc2c1c(Oc1cc(O)ccn1)nn2[C@@H]1CCCC[C@H]1O (single isomer, unassigned) [Compound 283] | 147

same assay, conditions: tgCDPK1 IC50, inhibition of T. gondii CDPK1; at least three independent replicates

Molecule | IC50 [nM]
Nc1ncnc2c1c(Oc1cccc(Cl)c1)nn2[C@H]1C[C@H](F)C1 [Compound 171] | 41.1
